Here are results for ten molecules from PMC10920327, “Prediction of anticancer peptides derived from the true lectins of Phoenix dactylifera and their synergetic effect with mitotane” (Frontiers in Pharmacology, 2024).

Where two headings read alike, the source gives them in different places. No end group written: not given here.

The subject of assay [1] is T47D. In words: MTT cell viability assay, T47D. Conditions: Table 3, 48 h, peptide alone. The class given is cell-based, human. The protocol:
MCF-7, T47D (breast cancer), and HepG2 (liver cancer) were donated by the Tissue Culture Unit, Department of Biochemistry, Faculty of Science, King Abdulaziz University. Selected human cell lines were cultured in DMEM media with 10% fetal bovine serum (FBS) at 37°C in a CO2 incubator. After 70%–90% confluence, 5 mL of 0.25% trypsin is injected to separate the cells. The cells were counted using trypan blue, and the cell concentration was set at 10^5/mL. A 96-well plate was filled with […] in each well, and the plate was then incubated for 24 h.
Mitotane, marketed as Lysodren, functions as a steroidogenesis inhibitor and cytostatic antineoplastic drug. It is employed for treating adrenocortical carcinoma and Cushing’s syndrome ([Lo Iacono et al., 2021]). In this study the media in each well was replaced to contain media containing peptides in varying concentrations (U1, U2, U3, U4, U5, U6, U7, U8, and U9). U3 and U7, which have the lowest IC50 values, were chosen to be combined with mitotane. Mitotane concentrations ranged from 20 to 600 µM. U3 and U7 were combined with mitotane using two different preparation techniques. Various concentrations of U3 or U7 (40–1500 µM) and mitotane (20–600 µM) were serially diluted. serial dilution of mitotane concentration with 500 µg/mL of U3 or U7 at a fixed concentration Each concentration was repeated four times.
After 48 h of incubation at 37°C, 100 µL of the 0.5 mg/mL MTT was changed with media containing the medication. At 37°C in the dark, the 96-well plate was incubated for 4 h. After removing the MTT and replacing it with 100 µL of DMSO, the plate was allowed to rest for 15 min. The absorbance of each well in 96 well plate was read at wave length 595 nm by ELISA reader (Bio-RAD microplate reader, Japan).
The treated cells viability and IC50 were expressed as the mean ± standard deviation (SD). The percentage viability was calculated by multiplying the absorbance of treated cells by 100 and dividing the absorbance of untreated cells. The software GraphPad Prism (version 9.0, San Diego, CA, United States) was conducted to calculate the IC50 of peptides, mitotane and their combination.

In assay [2] the test system is MCF-7. Conditions: MTT, 48 h; for % of cell viability of MCF-7, mitotane alone: mitotane 25 µg/mL alone.
Description: (§1) Selected human cell lines were cultured in DMEM media with 10% fetal bovine serum (FBS) at 37°C in a CO2 incubator. After 70%–90% confluence, 5 mL of 0.25% trypsin is injected to separate the cells. The cells were counted using trypan blue, and the cell concentration was set at 10^5/mL. A 96-well plate was filled with 100 mL in each well, and the plate was then incubated for 24 h.
(§2) In this study the media in each well was replaced to contain media containing peptides in varying concentrations (U1, U2, U3, U4, U5, U6, U7, U8, and U9). […] Mitotane concentrations ranged from 20 to 600 µM. U3 and U7 were combined with mitotane using two different preparation techniques. Various concentrations of U3 or U7 (40–1500 µM) and mitotane (20–600 µM) were serially diluted. serial dilution of mitotane concentration with 500 µg/mL of U3 or U7 at a fixed concentration Each concentration was repeated four times.
Assay [3] relates to HepG2. Conditions: for IC50 / % of cell viability of HepG2, mitotane alone: 48 h; for % of cell viability of HepG2, mitotane alone: mitotane 25 µg/mL (80 µM) alone, MTT, 80 µM.
Description: as §1, §2
Assay [4] relates to MCF-7. In words: cells. Conditions: Homo sapiens, MCF7, read-out: IC50 value against MCF-7, single agent.
Description: as §1, §2
For assay [5], the system named is HepG2. In words: cells. Conditions: Homo sapiens, HepG2, read-out: IC50 value against HepG2, single agent.
Description: as §1, §2
[6] abbreviates: mean ± SD, n = 3, read-out: IC50 value against T47D.
Setting [7] is: range from GraphPad fit, read-out: IC50 range against T47D.
The mark [8] stands for this setting: read-out: IC50 range against MCF-7, Table 3, peptide alone, range from GraphPad fit.
The mark [9] stands for this setting: read-out: IC50 value against MCF-7, Table 3, peptide alone, mean ± SD, n = 3.
[10] abbreviates: read-out: IC50 value against MCF-7, single agent, Table 4/Figure 2, U3, U7 40–1500 µM or mitotane alone, mean ± SD, n = 3.

For AVGSASPTL [Peptide U6], the IC50 in assay [1] (setting [6]) is 5900 ± 119 µM; in assay [1] (setting [7]), 2520 to 13800 µM; in assay [2] (setting [8]) it was 1360 to 2080 µM; in assay [2] (setting [9]) it was 1680 ± 74.3 µM.
In the case of NEEENTHISTR [Peptide U4], the IC50 in assay [1] (setting [6]) was 872 ± 23.4 µM; in assay [1] (setting [7]), 723 to 1050 µM; in assay [2] (setting [8]), 261 to 338 µM; in assay [2] (setting [9]), 297 ± 19.7 µM.
Consider NGSIPATWASL [Peptide U3], for which the half-maximal inhibitory concentration (IC50) in assay [1] (setting [6]) is 518 ± 34.9 µM; in assay [1] (setting [7]), 435 to 616 µM; in assay [2] (setting [8]) it was 373 to 617 µM; in assay [2] (setting [10]) it was 556 ± 43.5 µM; in assay [2] (setting [9]) it was 480 ± 55 µM; in assay [3] it was 561 ± 39.3 µM.
Consider SSQGYGSSPSPTPR [Peptide U1], for which the half-maximal inhibitory concentration (IC50) in assay [1] (setting [6]) is 599 ± 20.4 µM; in assay [1] (setting [7]), 458 to 784 µM; in assay [2] (setting [8]) it was 1010 to 2260 µM; in assay [2] (setting [9]) it was 1510 ± 71.7 µM.
As for `Clc1ccc(C(c2ccccc2Cl)C(Cl)Cl)cc1` (centres unmarked) [Mitotane], the results for the “% of cell viability of MCF-7, mitotane alone” value in assay [2] and in assay [2] (listed as mitotane) were 59% and 59.05 ± 1.83%, respectively. In addition, the “% of cell viability of HepG2, mitotane alone” value was found to be 41% in assay [3] and 41.86 ± 4.54% in assay [3] (listed as mitotane). For the same molecule, the “HepG2 IC50 fold lower than MCF-7” value in assay [3] (mitotane alone, HepG2 versus MCF-7) turned out to be 2 fold. In addition, the concentration for half-maximal inhibition (IC50) amounted to 76.3 ± 5.04 µM in assay [4] and 40.1 ± 4.69 µM in assay [5].
As for NQADSSPSS [Peptide U2], the IC50 in assay [1] (setting [6]) was 1510 ± 78 µM; in assay [1] (setting [7]), 1140 to 1990 µM; in assay [2] (setting [8]), 451 to 1030 µM; in assay [2] (setting [9]), 682 ± 32 µM.
On the same counts, the results for HDNTAHPAPDS [Peptide U9] are 5460 ± 99.3 µM, 2620 to 11400 µM, 351 to 496 µM and 418 ± 15.7 µM.
For DEEENTHISTR [Peptide U5] the same measures were 1260 ± 62.5 µM, 866 to 1830 µM, 549 to 1090 µM and 773 ± 44.5 µM.
As for NCSIHGDIPAY [Peptide U7], the IC50 in assay [1] (setting [6]) was 584 ± 30 µM; in assay [1] (setting [7]) it was 485 to 703 µM; in assay [2] (setting [8]), 266 to 458 µM; in assay [2] (setting [10]) it was 554 ± 44.4 µM; in assay [2] (setting [9]), 349 ± 25.3 µM; in assay [3], 524 ± 35.8 µM.
On to TFPCSASNK [Peptide U8], for which the 50% inhibitory concentration (IC50) in assay [1] (setting [6]) was 4710 ± 83.6 µM; in assay [1] (setting [7]), 1990 to 11100 µM; in assay [2] (setting [8]), 518 to 792 µM; in assay [2] (setting [9]), 641 ± 43.8 µM.

The term IC50 denotes the concentration at which inhibition is half-maximal.
